For assay [1], the system named is rats. An excerpt:
It should be emphasized that dopamine is not capable of penetrating the blood-brain barrier when administered conventionally.

Assay [2] relates to rear paw of the rats. Put plainly: Randall-Selitto pain test, critical pressure (WKD) on the rear paw. The assay is classed as in vivo, rat. As for the experimental part: The anti-nociceptive and/or analgesic effect of promedol (trimeperidine) was investigated as a result of the endonasal administration of the combination H2O2+promedol. The experiments were conducted with (raceless) sexually mature white male rats. In a pain test, the value of the critical pressure (WKD) on the rear paw of the rats was measured. The controlled pressure on the paw was generated with an analgesimeter from the company Ugo Basile in form of the Randall-Selitto test.
Comparative results in relation to the composition of the invention include, on one hand, the intraperitoneal administration of promedol without the addition of oxygen anion radicals and, on the other hand, the intraperitoneal administration of promedol with addition of oxygen anion radicals by, on one hand, inhalation with the inhalation device described in DE 41 12 459 A1 and, on the other hand, by separate endonasal administration of a liquid hydrogen peroxide solution with a concentration of 10^−5 mole/l.
The administration according to the invention consisted of a mixture of xanthine-oxidase/xanthine and promedol in doses of 5, 2, 1, and 0.1 mg/kg bodyweight of the animals.

In assay [3] the test system is white male rats. The assay is described as follows: Food motivation in partially food-deprived rats, endonasal administration. The assay is classed as in vivo, rat. An excerpt:
The experiments where carried out with white male rats. The animals of the control group 1 (n=13) received distilled water, the animals of the control group 2 (n=7) received a glucose solution, and the animals of the experimental group (n=9) received the composition H2O2+glucose. The duration of the observation was 17 days. During the first 11 days, the animals where controllably partially deprived of food (20 g dry mixed feed per animal). During the first week of the experiment, the initial motivation level for food was evaluated in the absence of the investigated preparation. The following parameters were investigated:
Latent period (LP) between the approach to the food and presentation of the food in seconds;
Time for consuming the food, in seconds (Tfut.);
Number of interruptions during food uptake (Ubr.)
After the second week, without changing the feed conditions, the preparation was introduced twice daily in a dose of 20 μl per animal, and all parameters where recorded. After the second week, the animals where fed ad libidum. No changes were made in the administration of the preparation and recordation of all parameters.
The experiments where conducted as in Example 1.

Assay [4] relates to patients with persistent or severe pain. The assay is described as follows: Analgesic effect in patients with persistent or severe pain. The assay is classed as in vivo, human. An excerpt:
The enhancement of the therapeutic efficacy of the analgesic metamizol was investigated. A total of 5 volunteers participated in the observations. […] With all patients, the observations were made after six hours following the last administration of the pain therapy.

Assay [5] has as its system white mice. Put plainly: Soporific effect (sleep duration) after endonasal administration. The assay is classed as in vivo, mouse. The following applies: 60 mg/ml, n = 7. An excerpt:
Investigated was the effect of phenobarbital in an endonasal administration on sexually mature white mice. Both the sedative and the soporific effect of the endonasal administration of phenobarbital without oxygen anion radicals were compared with the administration of the […]

Where [6] appears, read: rats given haloperidol i/p (100 mg/kg), one-time endonasal, dopamine 0.125 mg/kg, L-arginine 10^-5 mole/l, H2O2 10^-6 mole/l.
Where [7] appears, read: after administration of preparation, endonasal twice daily 20 μl per animal.
Setting [8] is: before administration minus after administration (Table 4).
Setting [9] is: before administration of preparation.

Structures are written as SMILES. Like-named read-outs stand apart in the source and are kept apart here.

As to `NCCc1ccc(O)c(O)c1` [Dopamine, dopamine], the “Total spontaneous activity (Number of measurable movements)” value in assay [1] (setting [6]) is 2 ± 1.7 ^##).
Still for that read-out and setting: the same measure for `OO` [H2O2, hydrogen peroxide]: 3 ± 1.9 ^##).
Regarding `O=C(CCCN1CCC(O)(c2ccc(Cl)cc2)CC1)c1ccc(F)cc1` [Haloperidol], the “Total spontaneous activity (Number of measurable movements)” value in assay [1] (haloperidol i/p alone (100 mg/kg bodyweight), unharmed control 35 ± 8) is 3 ± 3 ^##).
As for `CCC(=O)OC1(c2ccccc2)CC(C)N(C)CC1C` (stereo not drawn) [Promedol, trimeperidine], the “Lower dose of promedol giving prolonged and enhanced analgesic effect, endonasal form with oxygen anion radicals vs other administration methods” value in assay [2] (endonasal composition compared to other administration methods) was 10-50 times. The “Nociception (critical pressure WKD)” value in assay [2] (group II, 1.0 mg/kg i/p, 30 min after injection) is given as 6.2 ± 1.9; in assay [2] (group II, 1.0 mg/kg i/p, 90 min after injection), 5.4 ± 1.4; in assay [2] (group II, 1.0 mg/kg i/p, 150 min after injection), 5.0 ± 1.2; in assay [2] (group II, 1.0 mg/kg i/p, 210 min after injection), 4.8 ± 0.9; in assay [2] (group III, 2.0 mg/kg i/p, 30 min after injection) it was 10.1 ± 1.1*); in assay [2] (group III, 2.0 mg/kg i/p, 90 min after injection) it was 9.3 ± 1.0*). For the same compound, the “Nociception (critical pressure WKD)” value in assay [2] (group III, 2.0 mg/kg i/p, 150 min after injection) is given as 8.0 ± 1.1; in assay [2] (group III, 2.0 mg/kg i/p, 210 min after injection), 7.5 ± 0.9; in assay [2] (group IV, 5.0 mg/kg i/p, 30 min after injection), 11.0 ± 1.0**); in assay [2] (group IV, 5.0 mg/kg i/p, 90 min after injection), 9.8 ± 1.3**); in assay [2] (group IV, 5.0 mg/kg i/p, 150 min after injection), 8.3 ± 1.7*); in assay [2] (group IV, 5.0 mg/kg i/p, 210 min after injection) it was 6.7 ± 1.0. Besides, the “Nociception (critical pressure WKD)” value in assay [2] (group V, 1.0 mg/kg i/p + O2- inhalation, 30 min) was 8.1 ± 3.6*); in assay [2] (group V, 1.0 mg/kg i/p + O2- inhalation, 90 min), 8.1 ± 2.3**); in assay [2] (group V, 1.0 mg/kg i/p + O2- inhalation, 150 min) it was 9.6 ± 5.0**); in assay [2] (group V, 1.0 mg/kg i/p + O2- inhalation, 210 min) it was 5.8 ± 2.3; in assay [2] (group VI, 1.0 mg/kg i/p + separate endonasal H2O2-administration, 30 min), 8.4 ± 2.8*); in assay [2] (group VI, 1.0 mg/kg i/p + separate endonasal H2O2-administration, 90 min), 8.7 ± 2.0**). Besides, the “Nociception (critical pressure WKD)” value in assay [2] (group VI, 1.0 mg/kg i/p + separate endonasal H2O2-administration, 150 min) is 8.6 ± 2.7**); in assay [2] (group VI, 1.0 mg/kg i/p + separate endonasal H2O2-administration, 210 min) it was 7.3 ± 2.2. Also, the “Initial value of nociception (critical pressure WKD)” value in assay [2] (group II, 1.0 mg/kg i/p) is listed as 6.7 ± 0.9; in assay [2] (group III, 2.0 mg/kg i/p), 7.8 ± 1.6; in assay [2] (group IV, 5.0 mg/kg i/p), 6.4 ± 0.7; in assay [2] (group V, 1.0 mg/kg i/p + O2- inhalation), 6.9 ± 1.6; in assay [2] (group VI, 1.0 mg/kg i/p + separate endonasal H2O2-administration), 7.1 ± 1.8.
On to `N[C@@H](CCC(=O)O)C(=O)O` [glutamic acid], for which, in assay [3] (setting [7]), the “LP, latent period between approach to the food and presentation of the food” value stood at 36.3 ± 4.1 s; the “Tfut., time for consuming the food” value was determined as 491.2 ± 9.4 s. In addition, in assay [3] (setting [8]), the “Change in LP” value came out at 33.3 ± 13.1 s, the “Change in Tfut.” value is -77.2 ± 26.6 s and the “Change in Ubr.” value turned out to be 0.4 ± 0.6 s. Further, in assay [3] (setting [9]), the “LP, latent period between approach to the food and presentation of the food” value was 69.9 ± 15.9 s; the “Tfut., time for consuming the food” value is 414.0 ± 30.6 s.
As for `Cc1c(N(C)CS(=O)(=O)O)c(=O)n(-c2ccccc2)n1C` [metamizol], the “Analgesic efficacy in all patients” value is given as “not effective” in assay [4] (endonasally, dose of 10 mg, without addition of oxygen anion radicals) and “not effective” in assay [4] (per os, dose of 500 mg).
In assay [5], `CCC1(c2ccccc2)C(=O)NC(=O)NC1=O` [phenobarbital] showed a Sleep duration of 248.5 ± 22.2 min.

The record behind these values is US20060153906A1, “Pharmaceutical product for endonasal administration for treating central nervous system disease and disorders” (priority 2002, published 2006).
